± gives the standard deviation of the averaged measurements.
Experiments:
Assay in all cases: relative viability vs DMSO control (72 h) (fraction); higher = more viable cells
[1] = test system: SYO-1
Method in brief: (§1)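 Sarcoma cell lines went into 384-well plates at densities chosen to reach 80–90% confluence. After 24 h, each well received 2.5 µl of serially diluted compound, with source plates running from 10 mM to 0.0002 mM, and the plates were kept 72 h at 37 °C, 5% CO2, alongside 0.1% DMSO vehicle and a 5 µM positive control. Relative viability was derived from ATPLite readings as percent growth and averaged over up to triplicate wells. The data were then rescaled so that 1 stands for full and 0 for none.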

[2] = test system: KHOS-NP
Method in brief: as §1

[3] = test system: SW684
Method in brief: as §1

[4] = test system: RD-ES
Method in brief: as §1

[5] = test system: HT1080
Method in brief: as §1

Cc1cc2c(F)c(Oc3ncnn4cc(OC[C@@H](C)OC(=O)[C@H](C)N)c(C)c34)ccc2[nH]1 [Brivanib_alaninate]
relative viability
Details	[1]	[2]	[3]	[4]	[5]
0.00017 µM	0.934 ± 0.024	1.04 ± 0.032	1.15 ± 0.01	0.953 ± 0.022	1.05 ± 0.011
0.00051 µM	0.937 ± 0.028	1.05 ± 0.017	1.15 ± 0.013	0.9804 ± 0.0097	1.04 ± 0.016
0.00152 µM	0.94 ± 0.023	1.05 ± 0.022	1.17 ± 0.028	0.983 ± 0.025	1.06 ± 0.028
0.00457 µM	0.927 ± 0.034	1.06 ± 0.025	1.14 ± 0.033	0.983 ± 0.018	1.03 ± 0.013
0.01372 µM	0.9194 ± 0.0059	1.059 ± 0.0083	1.08 ± 0.021	0.996 ± 0.014	1.04 ± 0.013
0.04115 µM	0.914 ± 0.024	1.07 ± 0.024	1.07 ± 0.02	0.989 ± 0.023	1.03 ± 0.032
0.1235 µM	0.906 ± 0.034	1.03 ± 0.029	1.09 ± 0.027	0.962 ± 0.021	1.04 ± 0.032
0.3704 µM	0.903 ± 0.043	1.03 ± 0.02	1.17 ± 0.02	1 ± 0.048	1.054 ± 0.0074
1.111 µM	0.846 ± 0.032	1.02 ± 0.015	1.141 ± 0.0023	0.987 ± 0.056	1.047 ± 0.0084
3.333 µM	0.673 ± 0.053	0.917 ± 0.067	1.13 ± 0.025	0.9601 ± 0.0059	0.99 ± 0.018
10 µM	0.586 ± 0.015	0.6654 ± 0.0056	1.19 ± 0.072	0.926 ± 0.068	0.978 ± 0.0099

O=C(c1ccc(F)c(F)c1Nc1ccc(I)cc1F)N1CC(O)([C@@H]2CCCCN2)C1 [Cobimetinib]
relative viability
Details	[1]	[2]	[3]	[4]	[5]
0.00017 µM	0.985 ± 0.036	1.09 ± 0.026	1.23 ± 0.051	0.999 ± 0.026	1.07 ± 0.015
0.00051 µM	0.998 ± 0.049	1.097 ± 0.0056	1.15 ± 0.021	1.02 ± 0.015	1.087 ± 0.0045
0.00152 µM	0.964 ± 0.043	1.085 ± 0.0066	1.17 ± 0.051	0.985 ± 0.022	1.067 ± 0.0094
0.00457 µM	0.9431 ± 0.007	1.081 ± 0.0044	1.2 ± 0.061	0.986 ± 0.02	1.049 ± 0.01
0.01372 µM	0.928 ± 0.019	1.08 ± 0.014	1.13 ± 0.045	0.945 ± 0.015	1.06 ± 0.021
0.04115 µM	0.907 ± 0.055	0.912 ± 0.042	1.063 ± 0.0065	0.979 ± 0.019	0.876 ± 0.028
0.1235 µM	0.929 ± 0.053	0.438 ± 0.024	0.941 ± 0.015	0.955 ± 0.018	0.586 ± 0.032
0.3704 µM	0.84 ± 0.05	0.319 ± 0.012	0.738 ± 0.022	0.982 ± 0.011	0.4917 ± 0.0027
1.111 µM	0.719 ± 0.023	0.275 ± 0.012	0.536 ± 0.013	0.974 ± 0.016	0.39 ± 0.019
3.333 µM	0.566 ± 0.036	0.28 ± 0.013	0.357 ± 0.016	0.91 ± 0.056	0.247 ± 0.022
10 µM	-0.0086 ± 0.0037	0.187 ± 0.0053	-0.00433 ± 0.0021	0.0147 ± 0.0016	0.0054 ± 0.00072

Cc1c2oc3c(C)ccc(C(=O)N[C@@H]4C(=O)N[C@H](C(C)C)C(=O)N5CCC[C@H]5C(=O)N(C)CC(=O)N(C)[C@@H](C(C)C)C(=O)O[C@@H]4C)c3nc-2c(C(=O)N[C@@H]2C(=O)N[C@H](C(C)C)C(=O)N3CCC[C@H]3C(=O)N(C)CC(=O)N(C)[C@@H](C(C)C)C(=O)O[C@@H]2C)c(N)c1=O [Dactinomycin]
relative viability
Details	[1]	[2]	[3]	[4]	[5]
0.00017 µM	0.883 ± 0.041	1.06 ± 0.025	1.13 ± 0.1	1 ± 0.019	1.02 ± 0.021
0.00051 µM	0.888 ± 0.089	1.07 ± 0.024	1.16 ± 0.063	0.973 ± 0.021	1.04 ± 0.017
0.00152 µM	0.606 ± 0.12	1.08 ± 0.022	1.09 ± 0.079	0.943 ± 0.021	0.9913 ± 0.0077
0.00457 µM	0.327 ± 0.069	1.04 ± 0.056	0.992 ± 0.063	0.88 ± 0.03	0.712 ± 0.2
0.01372 µM	0.259 ± 0.08	0.63 ± 0.018	0.835 ± 0.047	0.621 ± 0.011	0.553 ± 0.2
0.04115 µM	0.249 ± 0.086	0.24 ± 0.033	0.687 ± 0.21	0.0824 ± 0.0062	0.391 ± 0.12
0.1235 µM	0.239 ± 0.014	0.0945 ± 0.0026	0.763 ± 0.082	0.00823 ± 0.0017	0.185 ± 0.011
0.3704 µM	0.29 ± 0.01	0.0744 ± 0.009	0.775 ± 0.066	-0.00353 ± 0.00035	0.171 ± 0.0055
1.111 µM	0.292 ± 0.015	0.0665 ± 0.0091	0.795 ± 0.034	-0.00503 ± 0.00021	0.137 ± 0.0066
3.333 µM	0.298 ± 0.01	0.0513 ± 0.009	0.816 ± 0.013	-0.00297 ± 0.00075	0.128 ± 0.011
10 µM	0.28 ± 0.023	0.0582 ± 0.0049	0.766 ± 0.036	0.00427 ± 0.00047	0.129 ± 0.003

C[C@@H]1CN(C(=O)c2ccc(NC(=O)c3cc(O[C@H](C)c4c(Cl)ccc(F)c4Cl)c(N)nn3)cc2)C[C@H](C)N1 [Ensartinib]
relative viability
Details	[1]	[2]	[3]	[4]	[5]
0.00017 µM	1.02 ± 0.024	1.02 ± 0.018	1.05 ± 0.025	0.97 ± 0.035	1.02 ± 0.027
0.00051 µM	1.01 ± 0.036	1.04 ± 0.05	1.02 ± 0.013	0.951 ± 0.032	1 ± 0.06
0.00152 µM	1 ± 0.02	1.03 ± 0.021	1.08 ± 0.042	0.989 ± 0.042	0.993 ± 0.012
0.00457 µM	0.997 ± 0.015	1.03 ± 0.029	1.06 ± 0.035	0.963 ± 0.025	1.03 ± 0.019
0.01372 µM	1.02 ± 0.011	1.04 ± 0.014	1.06 ± 0.017	0.985 ± 0.038	1.03 ± 0.028
0.04115 µM	0.981 ± 0.013	1.03 ± 0.017	1.07 ± 0.052	0.974 ± 0.039	0.9998 ± 0.0066
0.1235 µM	0.927 ± 0.052	1.03 ± 0.04	1.06 ± 0.034	0.975 ± 0.029	1.04 ± 0.029
0.3704 µM	0.91 ± 0.025	1.03 ± 0.03	1.05 ± 0.023	0.826 ± 0.051	1.04 ± 0.034
1.111 µM	0.6316 ± 0.0033	1.02 ± 0.013	0.971 ± 0.044	0.567 ± 0.031	1.02 ± 0.045
3.333 µM	0.175 ± 0.011	0.987 ± 0.025	0.829 ± 0.018	0.0894 ± 0.0084	0.837 ± 0.0086
10 µM	-0.0432 ± 0.0066	0.422 ± 0.069	0.113 ± 0.0034	0.00693 ± 0.00035	0.0183 ± 0.0025

C=CC(=O)N1CCC(CNc2ncnc(N)c2-c2ccc(Oc3ccccc3)cc2)CC1 [Evobrutinib]
relative viability
Details	[1]	[2]	[3]	[4]	[5]
0.00017 µM	1.018 ± 0.0036	1.11 ± 0.014	1.15 ± 0.035	0.985 ± 0.011	1.11 ± 0.033
0.00051 µM	1.02 ± 0.026	1.13 ± 0.031	1.19 ± 0.037	1 ± 0.038	1.1 ± 0.03
0.00152 µM	1.03 ± 0.017	1.13 ± 0.016	1.2 ± 0.024	0.99 ± 0.018	1.1 ± 0.021
0.00457 µM	1.02 ± 0.013	1.13 ± 0.031	1.22 ± 0.019	1 ± 0.0049	1.14 ± 0.06
0.01372 µM	1.03 ± 0.032	1.12 ± 0.028	1.2 ± 0.062	1 ± 0.034	1.082 ± 0.002
0.04115 µM	0.998 ± 0.01	1.128 ± 0.0056	1.16 ± 0.075	1.03 ± 0.012	1.08 ± 0.023
0.1235 µM	0.992 ± 0.034	1.12 ± 0.028	1.22 ± 0.059	1.01 ± 0.017	1.091 ± 0.0021
0.3704 µM	0.994 ± 0.018	1.12 ± 0.034	1.18 ± 0.012	0.981 ± 0.021	1.078 ± 0.0066
1.111 µM	0.965 ± 0.036	1.12 ± 0.032	1.19 ± 0.059	0.9603 ± 0.0071	1.07 ± 0.057
3.333 µM	0.953 ± 0.024	1.12 ± 0.03	1.19 ± 0.014	0.976 ± 0.021	1.1 ± 0.012
10 µM	0.894 ± 0.059	1.12 ± 0.022	1.174 ± 0.0072	0.946 ± 0.025	1.08 ± 0.018

From the supplement of paper PMC10883282
